In ChEMBL document CHEMBL1275248, “Two novel antibiotic resistance genes, tet(44) and ant(6)-Ib, are located within a transferable pathogenicity island in Campylobacter fetus subsp. fetus” (2010):

Columns and labels:
[1] = Antimicrobial activity against kanamycin-resistant Campylobacter fetus subsp. fetus CA74 harboring deletion in tet(44)::pCA64 resistant gene in presence of 5% lacked horse blood; format: functional
[2] = Antimicrobial activity against nalidixic acid-resistant Campylobacter fetus subsp. fetus IMD523-06 bovine isolate harboring tet(44) and ant(6)-Ib resistance gene in presence of 5% lacked horse blood; format: functional
[3] = Antimicrobial activity against ciprofloxacin-resistant Campylobacter fetus subsp. fetus 1516477 human isolate lacking tet(44) and ant(6)-Ib resistance genes in presence of 5% lacked horse blood
[4] = Antimicrobial activity against Campylobacter fetus subsp. fetus CA73 harboring pCA73 carrying tet(44) resistance gene of 1516477 in presence of 5% lacked horse blood; format: functional
[5] = Antimicrobial activity against Campylobacter fetus subsp. fetus CA75 harboring pCA75 carrying ant(6)-Ib resistant gene of 1516477 in presence of 5% lacked horse blood; format: functional
[6] = Antimicrobial activity against kanamycin-resistant Campylobacter fetus subsp. fetus CA76 harboring deletion in ant(6)-Ib::pCA76 in presence of 5% lacked horse blood; format: functional
[7] = Antimicrobial activity against Campylobacter fetus subsp. fetus CA80 harboring ciprofloxacin-resistant gene and IMD523-06 pathogenicity island with tet(44) and ant(6)-Ib resistant marker gene in presence of 5% lacked horse blood; format: functional

SMILES: CN(C)[C@@H]1C(O)=C(C(N)=O)C(=O)[C@@]2(O)C(O)=C3C(=O)c4c(O)cccc4[C@@](C)(O)[C@H]3C[C@@H]12 [TETRACYCLINE]
- MIC [1]: 1 µg/mL
- MIC [2]: 16 µg/mL
- MIC [3]: 1 µg/mL
- MIC [4]: > 32 µg/mL
- MIC [5]: 1 µg/mL
- MIC [6]: 16 µg/mL
- MIC [7]: 16 µg/mL

SMILES: C[C@H]1c2cccc(O)c2C(=O)C2=C(O)[C@]3(O)C(=O)C(C(N)=O)=C(O)[C@@H](N(C)C)[C@@H]3[C@@H](O)[C@@H]21.O [DOXYCYCLINE]
- MIC [1]: 0.5 µg/mL
- MIC [2]: 8 µg/mL
- MIC [3]: 0.5 µg/mL
- MIC [4]: 32 µg/mL
- MIC [5]: 0.5 µg/mL
- MIC [6]: 8 µg/mL
- MIC [7]: 4 µg/mL

SMILES: CN(C)c1ccc(O)c2c1C[C@H]1C[C@H]3[C@H](N(C)C)C(O)=C(C(N)=O)C(=O)[C@@]3(O)C(O)=C1C2=O [MINOCYCLINE]
- MIC [1]: 2 µg/mL
- MIC [2]: 16 µg/mL
- MIC [3]: 1 µg/mL
- MIC [4]: 32 µg/mL
- MIC [5]: 1 µg/mL
- MIC [6]: 16 µg/mL
- MIC [7]: 16 µg/mL

SMILES: CN[C@@H]1[C@H](O[C@H]2[C@H](O[C@H]3[C@H](O)[C@@H](O)[C@H](N=C(N)N)[C@@H](O)[C@@H]3N=C(N)N)O[C@@H](C)[C@]2(O)C=O)O[C@@H](CO)[C@H](O)[C@H]1O [STREPTOMYCIN]
- MIC [1]: > 64 µg/mL
- MIC [2]: > 64 µg/mL
- MIC [3]: ≤ 1 µg/mL
- MIC [4]: ≤ 1 µg/mL
- MIC [5]: 64 µg/mL
- MIC [6]: ≤ 1 µg/mL
- MIC [7]: 64 µg/mL
